Experimental findings from PubChem BioAssay AID248 (DTP/NCI, 2004) are described below.

In the assay the test system is L1210 leukemia ip in BDF1 mice, survival T/C. The assay can be described thus: NCI In Vivo Anticancer Drug Screen. Data for tumor model L1210 Leukemia (intraperitoneal) in B6D2F1 (BDF1) mice. The following applies: endpoint: mean survival time, higher = longer survival. The essentials:
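Tumor was transplanted into mice, which were then dosed with test compound or vehicle alone. Survival was recorded for each group, and the treated figure was expressed relative to the control figure.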

Where [1] appears, read: dose: 100.0 mg/kg/injection, schedule: Q04DX003 (ip), vehicle: Klucel (hydroxypropylcellulose) (HPC).
The mark [2] stands for this setting: dose: 200.0 mg/kg/injection, schedule: Q04DX003 (ip), vehicle: Klucel (hydroxypropylcellulose) (HPC).
Setting [3] is: dose: 400.0 mg/kg/injection, schedule: Q04DX003 (ip), vehicle: Klucel (hydroxypropylcellulose) (HPC).
Setting [4] is: dose: 100.0 mg/kg/injection, schedule: Q04DX003 (ip), vehicle: saline with Tween-80.
Setting [5] is: dose: 200.0 mg/kg/injection, schedule: Q04DX003 (ip), vehicle: saline with Tween-80.

Where “and” joins values, the source holds several entries; their conditions need not be identical. Equal values may be shown once. Toxic doses and inconclusive results are not listed.

Consider `CC(=O)c1c[nH]c2c(O)ccc(O)c12`, for which the T/C (dose: 6.25 mg/kg/injection, schedule: Q04DX002 (ip), vehicle: Klucel (hydroxypropylcellulose) (HPC)) was 93 % of control; the T/C (dose: 12.5 mg/kg/injection, schedule: Q04DX002 (ip), vehicle: Klucel (hydroxypropylcellulose) (HPC)) is 96 % of control; the T/C (dose: 25.0 mg/kg/injection, schedule: Q04DX002 (ip), vehicle: Klucel (hydroxypropylcellulose) (HPC)) was 99 % of control and 107 % of control.
On to `O=C(Nc1cccc(C2=NCCCN2)c1)Nc1ccc(NC(=O)Nc2cccc(C3=NCCCN3)c2)c(Cl)c1`, for which the T/C runs as follows: (dose: 0.47 mg/kg/injection, schedule: Q01DX Z (ip), vehicle: carboxymethylcellulose (CMC)) 121 % of control; (dose: 0.93 mg/kg/injection, schedule: Q01DX Z (ip), vehicle: carboxymethylcellulose (CMC)) 118 % of control; (dose: 3.75 mg/kg/injection, schedule: Q01DX Z (ip), vehicle: carboxymethylcellulose (CMC)) 156 % of control and 204 % of control; (dose: 7.5 mg/kg/injection, schedule: Q01DX Z (ip), vehicle: carboxymethylcellulose (CMC)) 229 % of control; (dose: 18.0 mg/kg/injection, schedule: Q01DX001 (ip), vehicle: carboxymethylcellulose (CMC)) 152 % of control; (dose: 25.0 mg/kg/injection, schedule: Q01DX Z (oral), vehicle: carboxymethylcellulose (CMC)) 101 % of control. In addition, the T/C is, setting by setting: (dose: 26.0 mg/kg/injection, schedule: Q01DX001 (ip), vehicle: carboxymethylcellulose (CMC)) 150 % of control; (dose: 26.0 mg/kg/injection, schedule: Q01DX001 (ip), vehicle: other) 154 % of control; (dose: 40.0 mg/kg/injection, schedule: Q01DX001 (ip), vehicle: carboxymethylcellulose (CMC)) 150 % of control and 162 % of control; (dose: 40.0 mg/kg/injection, schedule: Q01DX001 (ip), vehicle: other) 171 % of control; (dose: 50.0 mg/kg/injection, schedule: Q01DX Z (oral), vehicle: carboxymethylcellulose (CMC)) 98 % of control; (dose: 60.0 mg/kg/injection, schedule: Q01DX001 (ip), vehicle: carboxymethylcellulose (CMC)) 173 % of control and 200 % of control. The T/C (dose: 60.0 mg/kg/injection, schedule: Q01DX001 (ip), vehicle: other) is 185 % of control; the T/C (dose: 80.0 mg/kg/injection, schedule: Q01DX001 (ip), vehicle: carboxymethylcellulose (CMC)) is 236 % of control; the T/C (dose: 100.0 mg/kg/injection, schedule: Q01DX Z (oral), vehicle: carboxymethylcellulose (CMC)) was 104 % of control; the T/C (dose: 200.0 mg/kg/injection, schedule: Q01DX Z (oral), vehicle: carboxymethylcellulose (CMC)) was 101 % of control.
`O=C(C(=O)c1ccc([N+](=O)[O-])cc1)c1ccccc1`: the T/C was 97 % of control under setting [1], 100 % of control under setting [2] and 94 % of control under setting [3].
As to `CCOC(=O)C1C2CCC/C(=N\NS(=O)(=O)c3ccc(C)cc3)C21` (stereo unspecified), the T/C is 104 % of control (dose: 100.0 mg/kg/injection, schedule: Q04DX002 (ip), vehicle: Klucel (hydroxypropylcellulose) (HPC)); 100 % of control (dose: 200.0 mg/kg/injection, schedule: Q04DX002 (ip), vehicle: Klucel (hydroxypropylcellulose) (HPC)); 96 % of control (dose: 400.0 mg/kg/injection, schedule: Q04DX002 (ip), vehicle: Klucel (hydroxypropylcellulose) (HPC)).
As for `CC(=O)C(C)(CCC#N)CCC#N`, the T/C runs as follows: (dose: 50.0 mg/kg/injection, schedule: Q01DX009 (ip), vehicle: saline with Tween-80) 105 % of control; (dose: 100.0 mg/kg/injection, schedule: Q01DX009 (ip), vehicle: saline with Tween-80) 91 % of control; under setting [4], 108 % of control; under setting [5], 104 % of control.
For `O=C(O)C1C(C(=O)O)C2(Cl)C(Cl)=C(Cl)C1(Cl)C2(Cl)Cl.[Cu+2]` (stereo unspecified), the T/C (dose: 25.0 mg/kg/injection, schedule: Q01DX001 (ip), vehicle: Klucel (hydroxypropylcellulose) (HPC)) is 92 % of control; the T/C (dose: 50.0 mg/kg/injection, schedule: Q01DX001 (ip), vehicle: Klucel (hydroxypropylcellulose) (HPC)) was 97 % of control; the T/C (dose: 50.0 mg/kg/injection, schedule: Q01DX009 (ip), vehicle: saline sonified) was 95 % of control.
As for `O=C(Nc1cc([N+](=O)[O-])ccc1F)Oc1cccc(C(F)(F)F)c1`, the T/C is 89 % of control under setting [1], 97 % of control under setting [2] and 95 % of control under setting [3].
Take `O=C(Nc1ccc(Cl)cc1[N+](=O)[O-])c1ccc2ccccc2c1O`: the T/C (dose: 100.0 mg/kg/injection, schedule: Q01DX009 (ip), vehicle: Klucel (hydroxypropylcellulose) (HPC)) is 101 % of control; the T/C (dose: 200.0 mg/kg/injection, schedule: Q01DX009 (ip), vehicle: Klucel (hydroxypropylcellulose) (HPC)) is 111 % of control; the T/C (dose: 400.0 mg/kg/injection, schedule: Q01DX009 (ip), vehicle: Klucel (hydroxypropylcellulose) (HPC)) was 103 % of control.
Consider `O=C1CC(=C2C(=O)c3ccccc3C2=O)c2ccccc21`, for which the T/C was 95 % of control under setting [4]; 97 % of control under setting [5]; 106 % of control (dose: 400.0 mg/kg/injection, schedule: Q04DX003 (ip), vehicle: saline with Tween-80).
